According to publication PMC7004070 (Chemmedchem, 2019):
Entries after “also recorded” stand apart in the source; their conditions may differ.

Assays:
[1] = test system: HepG2 cells; assay: WST-1 assay in HepG2 cells; format: cell-based; details: n=4; for concentration with anti-proliferative / toxic effect: WST-1 assay, HepG2 cells, 24 h; for cytotoxicity compared to 3: WST-1 assay in HepG2 cells
[2] = target: CysLT1R; details: read-out: CysLT1R Ki; cited from earlier work
[3] = target: T1, recombinant human sEH (Homo sapiens, UniProt P34913); assay: sEH activity assay on recombinant protein; format: biochemical
T1 sequence (P34913 1-555): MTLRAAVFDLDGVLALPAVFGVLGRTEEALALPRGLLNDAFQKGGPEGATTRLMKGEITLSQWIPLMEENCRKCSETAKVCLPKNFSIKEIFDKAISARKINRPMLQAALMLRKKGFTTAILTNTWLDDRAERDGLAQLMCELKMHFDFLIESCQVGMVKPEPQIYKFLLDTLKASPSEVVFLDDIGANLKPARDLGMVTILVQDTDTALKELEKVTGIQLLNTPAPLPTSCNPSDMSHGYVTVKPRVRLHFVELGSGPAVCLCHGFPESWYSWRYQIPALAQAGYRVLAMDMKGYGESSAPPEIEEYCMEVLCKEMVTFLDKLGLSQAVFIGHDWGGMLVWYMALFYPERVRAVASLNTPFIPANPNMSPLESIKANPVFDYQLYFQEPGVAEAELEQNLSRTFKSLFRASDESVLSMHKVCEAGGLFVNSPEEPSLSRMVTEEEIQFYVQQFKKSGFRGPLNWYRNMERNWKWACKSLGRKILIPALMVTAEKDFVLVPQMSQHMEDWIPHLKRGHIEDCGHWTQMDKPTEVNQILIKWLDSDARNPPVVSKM

[4] = target: T2, human full-length FXR (Homo sapiens, UniProt Q96RI1); assay: full-length FXR-BSEP reporter gene assay; format: cell-based; details: for Emax: HeLa, read-out: FXR max. rel. act.; for FXR EC50: full-length FXR-BSEP reporter gene assay, HeLa cells, mean±S.E.M., n≥3, inactive = no significant activation up to 30 μM
T2 sequence (Q96RI1 1-486): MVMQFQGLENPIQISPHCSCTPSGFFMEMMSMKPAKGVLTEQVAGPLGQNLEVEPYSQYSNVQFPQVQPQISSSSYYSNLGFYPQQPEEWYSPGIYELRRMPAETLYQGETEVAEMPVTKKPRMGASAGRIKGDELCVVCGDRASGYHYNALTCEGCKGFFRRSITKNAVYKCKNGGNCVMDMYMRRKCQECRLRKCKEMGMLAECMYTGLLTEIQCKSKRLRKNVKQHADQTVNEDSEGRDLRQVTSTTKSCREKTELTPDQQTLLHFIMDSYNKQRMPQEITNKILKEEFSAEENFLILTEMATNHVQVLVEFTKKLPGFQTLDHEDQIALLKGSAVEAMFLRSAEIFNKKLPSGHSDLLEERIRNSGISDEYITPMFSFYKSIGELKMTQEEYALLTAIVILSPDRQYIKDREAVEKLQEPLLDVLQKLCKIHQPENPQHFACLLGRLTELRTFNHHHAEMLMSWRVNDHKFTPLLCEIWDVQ
T2 sequence (P19793 1-462 partner): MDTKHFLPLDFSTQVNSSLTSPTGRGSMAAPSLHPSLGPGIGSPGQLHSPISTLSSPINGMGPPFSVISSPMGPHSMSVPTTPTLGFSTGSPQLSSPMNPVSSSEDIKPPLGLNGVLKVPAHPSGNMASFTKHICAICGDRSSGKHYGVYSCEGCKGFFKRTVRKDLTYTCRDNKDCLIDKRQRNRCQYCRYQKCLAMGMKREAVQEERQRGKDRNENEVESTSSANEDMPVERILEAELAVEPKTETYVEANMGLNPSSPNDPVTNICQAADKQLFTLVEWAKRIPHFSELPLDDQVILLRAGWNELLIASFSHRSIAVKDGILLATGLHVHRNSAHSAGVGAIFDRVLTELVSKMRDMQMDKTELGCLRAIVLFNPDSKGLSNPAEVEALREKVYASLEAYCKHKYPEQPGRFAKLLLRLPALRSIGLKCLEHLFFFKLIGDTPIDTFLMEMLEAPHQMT

[5] = target: T3, sEH in HepG2 cell homogenate (Homo sapiens, UniProt P34913); assay: Cellular sEH assay: conversion of; format: cell-based; details: 10 μM; HepG2 homogenates; (±)14(15)-EET-d11; n≥4
T3 sequence (P34913 1-555): T1 sequence (P34913 1-555)

[6] = test system: FXR regulated genes (OSTα, SHP, CYP7A1) in HepG2 cells; format: cell-based; details: 10 μM, 12 h, qPCR, n=3
[7] = target: T4, human CysLT1R (Homo sapiens, UniProt Q9Y271); assay: CysLT1R antagonism assay, cell-based
T4 sequence (Q9Y271 1-337): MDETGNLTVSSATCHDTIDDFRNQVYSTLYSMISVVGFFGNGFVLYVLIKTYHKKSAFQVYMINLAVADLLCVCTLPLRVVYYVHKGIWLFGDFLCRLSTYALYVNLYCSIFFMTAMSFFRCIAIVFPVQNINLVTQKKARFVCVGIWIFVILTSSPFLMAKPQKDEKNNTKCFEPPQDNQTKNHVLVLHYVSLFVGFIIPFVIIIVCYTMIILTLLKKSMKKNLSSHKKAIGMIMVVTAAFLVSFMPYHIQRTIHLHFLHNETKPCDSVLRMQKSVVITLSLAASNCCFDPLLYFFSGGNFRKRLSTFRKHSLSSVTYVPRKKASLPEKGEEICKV

[8] = test system: nuclear receptors related to FXR (PPARα, PPARγ, PPARδ, LXRα, LXRβ, RXRα, RARα, CAR); assay: Gal4 hybrid reporter gene assays for nuclear receptors related to FXR; format: cell-based, human; details: HEK293T, mean, n=2
[9] = target: T5, RARα (Homo sapiens, UniProt P10276); assay: Gal4 hybrid reporter gene assay for RARα in HEK293T cells; format: cell-based; details: mean, n=2
T5 sequence (P10276 183-417 limits assumed): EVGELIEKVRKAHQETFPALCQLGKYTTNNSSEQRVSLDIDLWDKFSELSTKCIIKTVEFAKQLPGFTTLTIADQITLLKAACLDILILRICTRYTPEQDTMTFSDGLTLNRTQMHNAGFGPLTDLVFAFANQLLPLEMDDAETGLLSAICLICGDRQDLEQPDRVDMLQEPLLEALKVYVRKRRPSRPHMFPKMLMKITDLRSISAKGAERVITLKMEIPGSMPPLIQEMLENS

| Compound | IC50 [3] | EC50 [4] | Emax [4] | also measured |
| --- | --- | --- | --- | --- |
| COc1cc(C(=O)NS(=O)(=O)c2ccccc2C)ccc1Cc1cn(C)c2ccc(NC(=O)OC3CCCC3)cc12 [compound 3, Zafirlukast, reference compound] |  |  |  | concentration with anti-proliferative / toxic effect [1]: ≥ 1 µM; Ki [2]: 0.0003 µM |
| COc1cc(C(=O)O)ccc1Cc1cn(C)c2ccc(NC(=O)c3ccc(C(C)(C)C)cc3)cc12 [compound 5, 4‐((5‐(4‐(tert‐Butyl)benzamido)‐1‐methyl‐1H‐indol‐3‐yl)methyl)‐3‐methoxybenzoic acid] | > 30 µM | 0.6 ± 0.2 µM | 29% |  |
| COc1cc(C(=O)O)ccc1Cc1cn(C)c2ccc(NC(=O)c3c(-c4c(Cl)cccc4Cl)noc3C(C)C)cc12 [compound 6, 4‐((5‐(3‐(2,6‐Dichlorophenyl)‐5‐isopropylisoxazole‐4‐carboxamido)‐1‐methyl‐1H‐indol‐3‐yl)methyl)‐3‐methoxybenzoic acid] | 3.3 ± 0.6 µM |  |  | FXR EC50 [4]: inactive |
| COc1cc(C(=O)O)ccc1Cc1cn(C)c2ccc(NC(=O)c3ccncc3)cc12 [compound 7, 4‐((5‐(Isonicotinamido)‐1‐methyl‐1H‐indol‐3‐yl)methyl)‐3‐methoxybenzoic acid] | > 100 µM | 0.91 ± 0.06 µM | 15% |  |
| Cn1cc(Cc2ccc(C(=O)O)cc2)c2cc(NC(=O)c3ccc(C(C)(C)C)cc3)ccc21 [compound 8, 4‐((5‐(4‐(tert‐Butyl)benzamido)‐1‐methyl‐1H‐indol‐3‐yl)methyl)benzoic acid] | 12 ± 1 µM | > 10 µM |  |  |
| COc1ccc(C(=O)O)cc1Cc1cn(C)c2ccc(NC(=O)c3ccc(C(C)(C)C)cc3)cc12 [compound 9, 3‐((5‐(4‐tert‐Butylbenzamido)‐1‐methyl‐1H‐indol‐3‐yl)methyl)‐4‐methoxybenzoic acid] | 86 ± 10 µM |  |  | FXR EC50 [4]: inactive |
| Cn1cc(Cc2cccc(C(=O)O)c2)c2cc(NC(=O)c3ccc(C(C)(C)C)cc3)ccc21 [compound 10, 3‐((5‐(4‐(tert‐Butyl)benzamido)‐1‐methyl‐1H‐indol‐3‐yl)methyl)benzoic acid] | 22 ± 3 µM | 1.19 ± 0.08 µM | 18% |  |
| COc1cc(C(=O)O)ccc1Cc1cn(C(C)C)c2ccc(NC(=O)c3ccc(C(C)(C)C)cc3)cc12 [compound 11, 4‐((5‐(4‐(tert‐Butyl)benzamido)‐1‐isopropyl‐1H‐indol‐3‐yl)methyl)‐3‐methoxybenzoic acid] | > 100 µM | 2.3 ± 0.1 µM | 11% |  |
| COc1cc(C(=O)O)ccc1Cn1ccc2cc(NC(=O)c3ccc(C(C)(C)C)cc3)ccc21 [compound 12, 4‐((5‐(4‐(tert‐Butyl)benzamido)‐1H‐indol‐1‐yl)methyl)‐3‐methoxybenzoic acid] | > 100 µM | 9.2 ± 0.8 µM | 23% |  |
| COc1cc(C(=O)O)ccc1Cn1ccc2ccc(NC(=O)c3ccc(C(C)(C)C)cc3)cc21 [compound 13, 4‐((6‐(4‐(tert‐Butyl)benzamido)‐1H‐indol‐1‐yl)methyl)‐3‐methoxybenzoic acid] |  |  | 15% | conversion of EET to DHET (cellular sEH inhibition) [5]: blocked EET conversion to DHETs; OSTα expression [6]: induced expression; SHP expression [6]: induced expression; IC50 [7]: ~1 µM; cytotoxicity compared to 3 [1]: reduced cytotoxicity; also recorded: strongly reduced toxicity; concentration with anti-proliferative / toxic effect [1]: > 10 µM; higher potency on FXR compared to 16 ([4]; 13 compared to 16): approx. 10 fold; improvement of EC50 value on FXR compared to 3 ([4]; compared to 3): 15 fold; selectivity over nuclear receptors related to FXR [8]: selective; also recorded: high selectivity |
| COc1cc(C(=O)O)ccc1Cn1cnc2ccc(NC(=O)c3ccc(C(C)(C)C)cc3)cc21 [compound 14, 4‐((6‐(4‐(tert‐Butyl)benzamido)‐1H‐benzoimidazol‐1‐yl)methyl)‐3‐methoxybenzoic acid] | 18 ± 5 µM | 5.3 ± 0.4 µM | 26% | decrease of activity on sEH compared to 13 ([3]; benzimidazole 14 vs indole 13): approx. 10 fold |
| CC(C)(C)c1ccc(C(=O)Nc2ccc3ccn(Cc4cccc(C(=O)O)c4)c3c2)cc1 [compound 15, 3‐((6‐(4‐(tert‐Butyl)benzamido)‐1H‐indol‐1‐yl)methyl)benzoic acid] | 4.3 ± 0.4 µM |  |  | FXR EC50 [4]: inactive |
| CC(C)(C)c1ccc(C(=O)Nc2ccc3ccn(Cc4ccc(C(=O)O)cc4)c3c2)cc1 [compound 16, 4‐((6‐(4‐(tert‐Butyl)benzamido)‐1H‐indol‐1‐yl)methyl)benzoic acid] |  |  | 24% | conversion of EET to DHET (cellular sEH inhibition) [5]: blocked EET conversion to DHETs; RARα activation [9]: considerable RARα agonism; also recorded: marked RARα activation; OSTα expression [6]: induced expression; SHP expression [6]: induced expression; IC50 [7]: > 1 µM; cytotoxicity compared to 3 [1]: reduced cytotoxicity; also recorded: strongly reduced toxicity; concentration with anti-proliferative / toxic effect [1]: > 10 µM; selectivity over nuclear receptors related to FXR [8]: selective; also recorded: high selectivity |
